How the values were obtained:
KRAS (G12D)::SOS1 = KRAS (G12D)::SOS1 (Homo sapiens (Human), UniProt P01116, G12D); assay: KRAS::SOS1 AlphaScreen binding assay, KRAS G12D
How it was run: (§1)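 AlphaScreen measurement of compound disruption of biotinylated, GDP-loaded KRAS 1-169 (10 nM; G12C 7.5 nM) binding to GST-SOS1 564-1049 (5 nM with G12D/G12C, 10 nM otherwise), with 10 μM GDP in PBS/0.1% BSA/0.05% Tween 20. Timing was 30 min compound preincubation, then 60 min with beads at room temperature; top concentration 100 μM, 4-parameter IC50.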

KRAS (G12C)::SOS1 = KRAS (G12C)::SOS1 (Homo sapiens (Human), UniProt P01116, C118S/C51S/C80L/G12C); assay: KRAS::SOS1 AlphaScreen binding assay, KRAS G12C
How it was run: as §1

[1] = tested on: KRAS G12V-dependent Ba/F3 cells; assay: Ba/F3 proliferation assay, KRAS G12V; format: cell-based; conditions: Mus musculus, BaF3, 72 h, AlamarBlue;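 further: proliferation IC50 in KRAS G12V-dependent Ba/F3 cells read by AlamarBlue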
How it was run: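 Cells: murine Ba/F3 transduced with mutant KRAS by retrovirus, selected with 1 μg/mL puromycin, then weaned off IL-3. Compound exposure in duplicate, followed by AlamarBlue viability staining and curve fitting.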

SAS cells = assay: SAS CTG proliferation assay (120 h) (HNSCC, wt amplified); format: cell-based
How it was run: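 Viability measured by CellTiter-Glo luminescence, normalized to DMSO wells, after 120 h compound treatment of SAS cells. Cells grown in DMEM:F12 plus 10% FCS at 300 cells per well, dosed the day after seeding. Four-parameter fit gives IC50.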

KRAS (G12D)::SOS1, sequence (P01116 other isoform, or with tags, fused parts or gaps G12D): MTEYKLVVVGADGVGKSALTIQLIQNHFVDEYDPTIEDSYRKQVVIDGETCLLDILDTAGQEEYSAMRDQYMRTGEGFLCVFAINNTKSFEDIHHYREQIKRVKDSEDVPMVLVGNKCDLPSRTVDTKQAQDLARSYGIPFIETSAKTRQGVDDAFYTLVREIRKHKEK
KRAS (G12C)::SOS1, sequence (P01116 other isoform, or with tags, fused parts or gaps G12C/C51S/C80L/C118S): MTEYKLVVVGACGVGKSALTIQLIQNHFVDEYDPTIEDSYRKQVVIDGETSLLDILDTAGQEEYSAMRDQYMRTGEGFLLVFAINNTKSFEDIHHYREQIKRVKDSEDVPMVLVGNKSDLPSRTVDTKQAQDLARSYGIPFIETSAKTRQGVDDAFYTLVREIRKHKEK

SMILES | IC50 (KRAS (G12D)::SOS1) [nM] | IC50 (KRAS (G12C)::SOS1) [nM] | IC50 [1] [nM] | IC50 (SAS cells) [nM]
CO[C@@H]1C[C@@H]([C@H](C)Oc2cc(N3CCN(C)C4(CC4)C3)nc(-c3onc4c3CCC[C@@]43CCCc4sc(N)c(C#N)c43)n2)N(C)C1 [I-50] | 1 | 5 | 811 | 2900
C[C@H](Oc1cc(N2CCN(C)C3(CC3)C2)nc(-c2onc3c2CCC[C@@]32CCCc3sc(N)c(C#N)c32)n1)[C@@H]1C[C@@H](F)CN1C [I-39] | 1 | 10 | 895 | 1200
C[C@H](Oc1cc(-n2nccn2)nc(-c2onc3c2CCC[C@@]32CCCc3sc(N)c(C#N)c32)n1)[C@@H]1CCCN1C [I-29] | 6 | 3 | 15 | 97
C[C@H](Oc1cc(N2CCN(C)C3(CC3)C2)nc(-c2onc3c2CCC[C@@]32CCCc3sc(N)c(C#N)c32)n1)[C@@H]1CCCN1C [I-41] | 1 | 6 | 445 | 4190
C[C@H](Oc1cc(N2C[C@H](C)N(C)[C@@H](C)C2)nc(-c2onc3c2CCC[C@@]32CCCc3sc(N)c(C#N)c32)n1)[C@@H]1CCCN1C [I-43] | 1 | 6 | 302 | 1800
C[C@H](Oc1cc(-c2ccn(C[C@@H](C)O)n2)nc(-c2onc3c2CCC[C@@]32CCCc3sc(N)c(C#N)c32)n1)[C@@H]1CCCN1C [I-30] | 2 | 2 | 8 | 50
C[C@H](Oc1cc(N2CCNC3(CC3)C2)nc(-c2onc3c2CCC[C@@]32CCCc3sc(N)c(C#N)c32)n1)[C@@H]1C[C@@H](F)CN1C [I-45] | 1 | 4 | 453 | 1190
C[C@H](Oc1cc(N2CCNC3(CCC3)C2)nc(-c2onc3c2CCC[C@@]32CCCc3sc(N)c(C#N)c32)n1)[C@@H]1CCCN1C [I-3] | 1 | 3 | 351 | 4890
C[C@H](O)Cn1ccc(-c2cc(O[C@@H](C)[C@@H]3CCCN3C)nc(-c3onc4c3CCC[C@@]43CCCc4sc(N)c(C#N)c43)n2)n1 [I-31] | 3 | 2 | 9 | 57
C[C@H](Oc1cc(-c2ccc(N)nc2)nc(-c2onc3c2CCC[C@@]32CCCc3sc(N)c(C#N)c32)n1)[C@@H]1CCCN1C [I-25] | 5 | 2 | 57 | 285

More lines, main results first:

IC50 (KRAS (G12D)::SOS1) [nM] | IC50 (KRAS (G12C)::SOS1) [nM] | IC50 [1] [nM] | SMILES | IC50 (SAS cells) [nM]
2 | 2 | 5 | C[C@H](Oc1cc(-c2ccn([C@H]3CCCOC3)n2)nc(-c2noc3c2CCC[C@@]32CCCc3sc(N)c(C#N)c32)n1)[C@@H]1CCCN1C [II-42] | 264
2 | 2 | 14 | C[C@H](Oc1cc(C2CCCO2)nc(-c2noc3c2CCC[C@@]32CCCc3sc(N)c(C#N)c32)n1)[C@@H]1CCCN1C (stereo partly shown) [II-44] | 6000
2 | 1 | 8 | C[C@H](Oc1cc(-c2ccn(C[C@@H]3CCCO3)n2)nc(-c2noc3c2CCC[C@@]32CCCc3sc(N)c(C#N)c32)n1)[C@@H]1CCCN1C [II-43] | 24
1 | 3 | 177 | C[C@H](Oc1cc([C@@H]2CCN(C)C2)nc(-c2noc3c2CCC[C@@]32CCCc3sc(N)c(C#N)c32)n1)[C@@H]1CCCN1C [II-37] | 1250
1 | 2 | 247 | C[C@H](Oc1cc(N2CCN(C)C3(COC3)C2)nc(-c2noc3c2CCC[C@@]32CCCc3sc(N)c(C#N)c32)n1)[C@@H]1CCCN1C [II-13] | 450
2 | 1 | 3 | C[C@H](Oc1cc(-n2ccc(C(=O)NC3(C)COC3)n2)nc(-c2noc3c2CCC[C@@]32CCCc3sc(N)c(C#N)c32)n1)[C@@H]1CCCN1C [II-26] | 5
22 | 7 | 27 | C[C@H](Oc1cc(-c2cnn(C)n2)nc(-c2noc3c2CCC[C@@]32CCCc3sc(N)c(C#N)c32)n1)[C@@H]1C[C@@H](F)CN1C [II-28] | 203
2 | 7 | 957 | C[C@H](Oc1cc(N2C[C@@H](N(C)C)[C@@H](O)C2)nc(-c2noc3c2CCC[C@@]32CCCc3sc(N)c(C#N)c32)n1)[C@@H]1CCCN1C [II-10] | 3540
2 | 1 | 4 | C[C@H](Oc1cc(-n2ccc(C(=O)NC3COC3)n2)nc(-c2noc3c2CCC[C@@]32CCCc3sc(N)c(C#N)c32)n1)[C@@H]1CCCN1C [II-25] | 9

From patent publication US20240174690A1, “ANNULATED 2-AMINO-3-CYANO THIOPHENES AND DERIVATIVES FOR THE TREATMENT OF CANCER” (BOEHRINGER INGELHEIM INTERNATIONAL GMBH, priority 2021, published 2024)
